Experimental data taken from the supplement of paper PMC10307832.

Assays:
Assay in all cases: relative viability (nuclei count vs DMSO), 5 days (fraction); higher = more cells survive
SK-MES-1 = system: SK-MES-1
How it was run: (§1)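 Each reported value is a median over duplicate plates. It expresses relative viability: treated-well nuclei count divided by vehicle-well nuclei count. Lung cancer cell lines in 1536-well plates were dosed by pin tool a day after seeding, alone with one drug or with a fixed anchor-drug dose plus five library-drug doses (not always all listed) in √10 steps, and nuclei were counted after 5 days.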

NCI-H441 = system: NCI-H441
How it was run: as §1

NCI-H2170 = system: NCI-H2170
How it was run: as §1

NCI-H1734 = system: NCI-H1734
How it was run: as §1

ChaGo-K-1 = system: ChaGo-K-1
How it was run: as §1

NCI-H1755 = system: NCI-H1755
How it was run: as §1

NCI-H23 = system: NCI-H23
How it was run: as §1

LOU-NH91 = system: LOU-NH91
How it was run: as §1

LK-2 = system: LK-2
How it was run: as §1

NCI-H1792 = system: NCI-H1792
How it was run: as §1

COR-L 105 = system: COR-L 105
How it was run: as §1

EMC-BAC-2 = system: EMC-BAC-2
How it was run: as §1

EKVX = system: EKVX
How it was run: as §1

H3255 = system: H3255
How it was run: as §1

PC-3 [JPC-3] = system: PC-3 [JPC-3]
How it was run: as §1

NCI-H1975 = system: NCI-H1975
How it was run: as §1

NCI-H1563 = system: NCI-H1563
How it was run: as §1

NCI-H520 = system: NCI-H520
How it was run: as §1

A-427 = system: A-427
How it was run: as §1

NCI-H1666 = system: NCI-H1666
How it was run: as §1

NCI-H596 = system: NCI-H596
How it was run: as §1

HCC-366 = system: HCC-366
How it was run: as §1

With C=C1C(=O)O[C@@H](CCCCCCCC)[C@@H]1C(=O)O [C-75] + CS(=O)(=O)N1CCN(Cc2cc3nc(-c4cccc5[nH]ncc45)nc(N4CCOCC4)c3s2)CC1 [Pictilisib] (partner 1 µM) the relative viability (SK-MES-1; first compound 0.08 µM) was 0.339, the relative viability (SK-MES-1; first compound 0.253 µM) was 0.374 and the relative viability (SK-MES-1; first compound 0.8 µM) was 0.374. It also gave a relative viability (SK-MES-1; first compound 2.53 µM) of 0.373, a relative viability (SK-MES-1; first compound 8 µM) of 0.346 and a relative viability (NCI-H441; first compound 0.08 µM) of 0.473. The relative viability (NCI-H441; first compound 0.253 µM) was 0.536, the relative viability (NCI-H441; first compound 0.8 µM) was 0.403 and the relative viability (NCI-H441; first compound 2.53 µM) was 0.418. For the same molecule, the relative viability (NCI-H441; first compound 8 µM) was 0.38, the relative viability (NCI-H2170; first compound 0.08 µM) was 0.355 and the relative viability (NCI-H2170; first compound 0.253 µM) was 0.299. For the same molecule, the relative viability (NCI-H2170; first compound 0.8 µM) was 0.318, the relative viability (NCI-H2170; first compound 2.53 µM) was 0.274 and the relative viability (NCI-H2170; first compound 8 µM) was 0.272. It also gave a relative viability (NCI-H1734; first compound 0.08 µM) of 0.435, a relative viability (NCI-H1734; first compound 0.253 µM) of 0.428 and a relative viability (NCI-H1734; first compound 0.8 µM) of 0.448. For the same molecule, the relative viability (NCI-H1734; first compound 2.53 µM) was 0.384, the relative viability (NCI-H1734; first compound 8 µM) was 0.367 and the relative viability (ChaGo-K-1; first compound 0.08 µM) was 0.431. It also gave a relative viability (ChaGo-K-1; first compound 0.253 µM) of 0.749, a relative viability (ChaGo-K-1; first compound 0.8 µM) of 0.594 and a relative viability (ChaGo-K-1; first compound 2.53 µM) of 0.507. It also gave a relative viability (ChaGo-K-1; first compound 8 µM) of 0.771, a relative viability (NCI-H1755; first compound 0.08 µM) of 0.461 and a relative viability (NCI-H1755; first compound 0.253 µM) of 0.448. For the same molecule, the relative viability (NCI-H1755; first compound 0.8 µM) was 0.389, the relative viability (NCI-H1755; first compound 2.53 µM) was 0.339 and the relative viability (NCI-H1755; first compound 8 µM) was 0.402. It also gave a relative viability (NCI-H23; first compound 0.08 µM) of 0.459, a relative viability (NCI-H23; first compound 0.253 µM) of 0.686 and a relative viability (NCI-H23; first compound 0.8 µM) of 0.416. It also gave a relative viability (NCI-H23; first compound 2.53 µM) of 0.475, a relative viability (NCI-H23; first compound 8 µM) of 0.311 and a relative viability (LOU-NH91; first compound 0.08 µM) of 0.555. It also gave a relative viability (LOU-NH91; first compound 0.253 µM) of 0.602, a relative viability (LOU-NH91; first compound 0.8 µM) of 0.446 and a relative viability (LOU-NH91; first compound 2.53 µM) of 0.406. For the same molecule, the relative viability (LOU-NH91; first compound 8 µM) was 0.461, the relative viability (LK-2; first compound 0.08 µM) was 0.444 and the relative viability (LK-2; first compound 0.253 µM) was 0.662. For the same molecule, the relative viability (LK-2; first compound 0.8 µM) was 0.555, the relative viability (LK-2; first compound 2.53 µM) was 0.461 and the relative viability (LK-2; first compound 8 µM) was 0.396. For the same molecule, the relative viability (NCI-H1792; first compound 0.08 µM) was 0.312, the relative viability (NCI-H1792; first compound 0.253 µM) was 0.268 and the relative viability (NCI-H1792; first compound 0.8 µM) was 0.293. For the same molecule, the relative viability (NCI-H1792; first compound 2.53 µM) was 0.261, the relative viability (NCI-H1792; first compound 8 µM) was 0.343 and the relative viability (COR-L 105; first compound 0.08 µM) was 0.437. It also gave a relative viability (COR-L 105; first compound 0.253 µM) of 0.422, a relative viability (COR-L 105; first compound 0.8 µM) of 0.469 and a relative viability (COR-L 105; first compound 2.53 µM) of 0.432. For the same molecule, the relative viability (COR-L 105; first compound 8 µM) was 0.343, the relative viability (EMC-BAC-2; first compound 0.08 µM) was 0.51 and the relative viability (EMC-BAC-2; first compound 0.253 µM) was 0.491. For the same molecule, the relative viability (EMC-BAC-2; first compound 0.8 µM) was 0.51, the relative viability (EMC-BAC-2; first compound 2.53 µM) was 0.521 and the relative viability (EMC-BAC-2; first compound 8 µM) was 0.587. The relative viability (EKVX; first compound 0.08 µM) was 0.436, the relative viability (EKVX; first compound 0.253 µM) was 0.448 and the relative viability (EKVX; first compound 0.8 µM) was 0.426. For the same molecule, the relative viability (EKVX; first compound 2.53 µM) was 0.458, the relative viability (EKVX; first compound 8 µM) was 0.452 and the relative viability (H3255; first compound 0.08 µM) was 0.464. The relative viability (H3255; first compound 0.253 µM) was 0.572, the relative viability (H3255; first compound 0.8 µM) was 0.458 and the relative viability (H3255; first compound 2.53 µM) was 0.494. For the same molecule, the relative viability (H3255; first compound 8 µM) was 0.447, the relative viability (PC-3 [JPC-3]; first compound 0.08 µM) was 0.817 and the relative viability (PC-3 [JPC-3]; first compound 0.253 µM) was 0.637. The relative viability (PC-3 [JPC-3]; first compound 0.8 µM) was 0.674, the relative viability (PC-3 [JPC-3]; first compound 2.53 µM) was 0.822 and the relative viability (PC-3 [JPC-3]; first compound 8 µM) was 0.876. It also gave a relative viability (NCI-H1975; first compound 0.08 µM) of 0.286, a relative viability (NCI-H1975; first compound 0.253 µM) of 0.282 and a relative viability (NCI-H1975; first compound 0.8 µM) of 0.278. The relative viability (NCI-H1975; first compound 2.53 µM) was 0.326, the relative viability (NCI-H1975; first compound 8 µM) was 0.347 and the relative viability (NCI-H1563; first compound 0.08 µM) was 0.606. It also gave a relative viability (NCI-H1563; first compound 0.253 µM) of 0.681, a relative viability (NCI-H1563; first compound 0.8 µM) of 0.737 and a relative viability (NCI-H1563; first compound 2.53 µM) of 0.673. For the same molecule, the relative viability (NCI-H1563; first compound 8 µM) was 0.63, the relative viability (NCI-H520; first compound 0.08 µM) was 0.24 and the relative viability (NCI-H520; first compound 0.253 µM) was 0.357. It also gave a relative viability (NCI-H520; first compound 0.8 µM) of 0.309, a relative viability (NCI-H520; first compound 2.53 µM) of 0.224 and a relative viability (NCI-H520; first compound 8 µM) of 0.297. The relative viability (A-427; first compound 0.08 µM) was 0.786, the relative viability (A-427; first compound 0.253 µM) was 0.75 and the relative viability (A-427; first compound 0.8 µM) was 0.626. It also gave a relative viability (A-427; first compound 2.53 µM) of 0.62, a relative viability (A-427; first compound 8 µM) of 0.718 and a relative viability (NCI-H1666; first compound 0.08 µM) of 0.49. The relative viability (NCI-H1666; first compound 0.253 µM) was 0.555, the relative viability (NCI-H1666; first compound 0.8 µM) was 0.295 and the relative viability (NCI-H1666; first compound 2.53 µM) was 0.41. It also gave a relative viability (NCI-H1666; first compound 8 µM) of 0.346, a relative viability (NCI-H596; first compound 0.08 µM) of 0.406 and a relative viability (NCI-H596; first compound 0.253 µM) of 0.39. It also gave a relative viability (NCI-H596; first compound 0.8 µM) of 0.229, a relative viability (NCI-H596; first compound 2.53 µM) of 0.39 and a relative viability (NCI-H596; first compound 8 µM) of 0.438. It also gave a relative viability (HCC-366; first compound 0.08 µM) of 0.238, a relative viability (HCC-366; first compound 0.253 µM) of 0.165 and a relative viability (HCC-366; first compound 0.8 µM) of 0.152. It also gave a relative viability (HCC-366; first compound 2.53 µM) of 0.264 and a relative viability (HCC-366; first compound 8 µM) of 0.148.
